Source: patent US20150185241A1, “Tilidine Immunodetection” (Randox Laboratories Limited, priority 2013, published 2015)
Structures can show the parent of a compound that is named as a salt.

Tests used:
[1] = tested on: tilidine-specific antibody raised from Immunogen-II; assay: Competitive ELISA (Example 7): Ig fraction of antiserum raised to Immunogen II, hapten-HRP conjugate of Example 6 as detecting agent; type: binding
Experimental: (§1) The wells of an enhanced binding 96 well polystyrene microtitre plate were coated with the Ig fraction of the antiserum raised to Immunogen II (N-(carboxypropyl)nortilidine-BTG—example 5), diluted in 10 mMTris, pH 8.5 (125 μl/well). The appropriate antibody coating dilution was determined using standard ELISA checkerboard techniques. The plate was incubated for 2 hours at 37° C., washed 4 times over 10 minutes with Tris buffered saline, containing Tween 20 (TBST) and tapped dry. Standard solutions of tilidine hydrochloride (a mixture of the two trans isomers—the 1R, 2S and the 1S, 2R trans isomers) and nortilidine hydrochloride (a mixture of the two trans isomers—the 1R, 2S and the 1S, 2R trans isomers) were prepared in TBST at 0, 0.625 ng/ml, 1.25 ng/ml, 2.5 ng/ml, 5 ng/ml, 10 ng/ml, 20 ng/ml and 40 ng/ml and 50 μl of each was added to the appropriate wells. 75 μl of conjugate of example 6 (hapten-HRP), diluted in Tris buffer (pH7.2) containing EDTA, D-mannitol, sucrose, thimerosal and BSA was added to each of the wells. The appropriate dilution of conjugate was also determined using standard ELISA checkerboard techniques. The plate was incubated at 25° C. for 1 hour. Excess unbound conjugate was removed by washing 6 times over a 10-15 minute period with TBST. 125 μl of tetramethylbenzidine (TMB) substrate solution was added to each well of the plate that was then incubated for 20 minutes in the dark at room temperature. The reaction was terminated by the addition of 125 μl of 0.2M H2SO4 to each well. The absorbance was then measured at 450 nm using a microtitre plate reader.

[2] = tested on: tilidine-specific antibody raised from Immunogen-II; assay: Competitive ELISA (Example 8): different Ig fraction of antiserum raised to Immunogen II, hapten-HRP conjugate of Example 6 as detecting agent; type: binding; conditions: for % cross-reactivity: relative to tilidine HCl = 100; for % cross-reactivity / IC50: different Ig fraction (Example 8); for IC50: standard concentration which produces 50% B/Bo
Experimental: as §1, with “with a different” for “with the”, “fraction (to that exemplified in Example 7)” for “fraction”, “and bisnortilidine” for “and nortilidine”, “0, 0.313 ng/ml,” for “0,”, “10” for “10 ng/ml, 20”, “and 20” for “and 40”

In the case of CCOC(=O)[C@]1(c2ccccc2)CCC=C[C@H]1N(C)C (racemic) [Tilidine HCl, (±)-trans-ethyl 2-(N,N-dimethylamino)-1-phenylcyclohex-3-enylcarboxylate], the “% cross-reactivity” value ([1]; relative to tilidine HCl = 100, Ig fraction of Example 7) is reported as 100%, the “% B/Bo” value ([1]; standard 0.625 ng/ml) is reported as 63% and the “% B/Bo” value ([1]; standard 1.250 ng/ml) is reported as 55%. The “% B/Bo” value ([1]; standard 2.500 ng/ml) was 46%, the “% B/Bo” value ([1]; standard 5.000 ng/ml) was 37% and the “% B/Bo” value ([1]; standard 10.000 ng/ml) was 28%. The “% B/Bo” value ([1]; standard 20.000 ng/ml) was 20%, the “% B/Bo” value ([1]; standard 40.000 ng/ml) was 14% and the IC50 ([1]; standard concentration which produces 50% B/Bo, Ig fraction of Example 7) was 1.820 ng/mL. The “% cross-reactivity” value [2] was 100%, the “% B/Bo” value ([2]; standard 0.313 ng/ml) was 70% and the “% B/Bo” value ([2]; standard 0.625 ng/ml) was 63%. The “% B/Bo” value ([2]; standard 1.250 ng/ml) was 52%, the “% B/Bo” value ([2]; standard 2.500 ng/ml) was 41% and the “% B/Bo” value ([2]; standard 5.000 ng/ml) was 31%. For the same compound, the “% B/Bo” value ([2]; standard 10.000 ng/ml) was 21%, the “% B/Bo” value ([2]; standard 20.000 ng/ml) was 14% and the IC50 [2] was 1.473 ng/mL.

In the case of “(±)-trans-ethyl 2-amino-1-phenylcyclohex-3-enylcarboxylate [Bisnortilidine HCl]”, the “% cross-reactivity” value [2] is reported as 14.73%, the “% B/Bo” value ([2]; standard 0.313 ng/ml) is reported as 86% and the “% B/Bo” value ([2]; standard 0.625 ng/ml) is reported as 82%. For the same compound, the “% B/Bo” value ([2]; standard 1.250 ng/ml) was 76%, the “% B/Bo” value ([2]; standard 2.500 ng/ml) was 68% and the “% B/Bo” value ([2]; standard 5.000 ng/ml) was 59%. The “% B/Bo” value ([2]; standard 10.000 ng/ml) was 50%, the “% B/Bo” value ([2]; standard 20.000 ng/ml) was 39% and the IC50 [2] was 10.0 ng/mL.
